Measured values reported in patent EP2758042B1, “STABLE, LOW-TOXICITY, STERILIZABLE COMPOSITION FOR OPHTHALMIC DYING” (Arcadophta, priority 2011, dated 2013).

Tests used:
[1] = system: cellules rétiniennes épithéliales ARPE-19; assay: Cytolysis after 30 min or 5 min exposure (Example 4); assay type: cell-based
Procedure: (§1) Dans cet essai, on évalue également l'influence de la présence d'eau lourde dans les solutions sur leur cytotoxicité vis-à-vis de cellules rétiniennes épithéliales ARPE-19 fournies par ATCC, dans les mêmes conditions générales que dans l'exemple 1.
(§2) Les cellules sont exposées aux solutions 30 minutes dans une première série d'essais, et cinq minutes dans une deuxième série d'essais. Des mesures de cytolyse sont réalisées 1,5 h et 48 h après ce traitement.
(§3) Les mêmes mesures sont effectuées à titre de comparaison sur composition de Monoblue® 0,15% commercialisée par la société Arcadophta, Toulouse, France, sur une solution d'eau oxygénée 100mM et sur une solution saline d'irrigation intraoculaire (BSS).

[2] = system: cellules rétiniennes épithéliales ARPE-19; assay: Number of cells after exposure (Example 4); assay type: cell-based
Procedure: as §1, §2, §3

[3] = Exposition 5 min, culture 48 h après exposition
[4] = Exposition 30 min, culture 1 h30 après exposition

Substance: eau oxygénée [H2O2 100mM]
- % Cellules cytolysées Moyenne [1, 3]: 88,3%
- % Cellules cytolysées Moyenne [1, 4]: 73,63%
- Nombre de cellules Moyenne [2, 3]: 129,00
- Nombre de cellules Moyenne [2, 4]: 29,33
